Assay results from patent US10690666B2, “Methods and compositions for modulating TH-GM cell function” (National University of Singapore, priority 2014, dated 2020).

Columns and labels:
STAT5 [1] = test: IL-7-induced STAT5 activation (Tyr694 phosphorylation) in CD4+ T cells, immunoblotting; type: cell-based, mouse; details: pre-incubated 1 h, IL-7 30 min
Experimental: (§1) FIGS. […] depict inhibition of STAT5 activation suppresses TH-GM cell differentiation in vitro. CD4^+ T cells were pre-incubated with STAT5 inhibitor (Calbiochem) (FIG. 22A) or JAK3 inhibitor (FIG. 22B) at indicated concentrations or vehicle (−) for 1 h before stimulation with IL-7 for 30 min. Activation (Tyr694 phosphorylation) of STAT5 was determined by immunoblotting. CD4^+ T cells were pre-incubated with STAT5 inhibitor at indicated concentrations or vehicle (−) for 1 h before stimulation with IL-6 for 30 min. Activation (Tyr705 phosphorylation) of STAT3 was determined by immunoblotting (FIG. 22C). In FIG. 22D, CD4^+ T cells were pre-incubated with STAT5 inhibitor at indicated concentrations or vehicle (−) for 1 h before stimulation with IFN-γ for 30 min. Activation (Tyr701 phosphorylation) of STAT1 was determined by immunoblotting. In FIG. 22E, naïve CD4^+ T cells were isolated and activated under neutral condition or TH-GM cell-favoring condition with the addition of different concentrations of STAT5 inhibitor for 3 days. GM-CSF and IFN-γ expression was analyzed by intracellular cytokine staining and flow cytometry.
(§2) The effect of disrupting STAT5 activation by chemical inhibitor was examined to explore possible methods of treating autoimmune neuroinflammation. The phosphorylation on the key tyrosine residue in SH2 domain is crucial for STAT5 activation and function. […]

STAT3 = biological target: T1, STAT3 (Mus musculus, UniProt P42227); test: IL-6-induced STAT3 activation (Tyr705 phosphorylation) in CD4+ T cells, immunoblotting; type: cell-based; details: 50 or 100 μM; IL-6 30 min
T1 construct: endogenous in cells; host or cells: primary mouse CD4+ T cells (spleen and lymph nodes)
T1 sequence (P42227 whole entry): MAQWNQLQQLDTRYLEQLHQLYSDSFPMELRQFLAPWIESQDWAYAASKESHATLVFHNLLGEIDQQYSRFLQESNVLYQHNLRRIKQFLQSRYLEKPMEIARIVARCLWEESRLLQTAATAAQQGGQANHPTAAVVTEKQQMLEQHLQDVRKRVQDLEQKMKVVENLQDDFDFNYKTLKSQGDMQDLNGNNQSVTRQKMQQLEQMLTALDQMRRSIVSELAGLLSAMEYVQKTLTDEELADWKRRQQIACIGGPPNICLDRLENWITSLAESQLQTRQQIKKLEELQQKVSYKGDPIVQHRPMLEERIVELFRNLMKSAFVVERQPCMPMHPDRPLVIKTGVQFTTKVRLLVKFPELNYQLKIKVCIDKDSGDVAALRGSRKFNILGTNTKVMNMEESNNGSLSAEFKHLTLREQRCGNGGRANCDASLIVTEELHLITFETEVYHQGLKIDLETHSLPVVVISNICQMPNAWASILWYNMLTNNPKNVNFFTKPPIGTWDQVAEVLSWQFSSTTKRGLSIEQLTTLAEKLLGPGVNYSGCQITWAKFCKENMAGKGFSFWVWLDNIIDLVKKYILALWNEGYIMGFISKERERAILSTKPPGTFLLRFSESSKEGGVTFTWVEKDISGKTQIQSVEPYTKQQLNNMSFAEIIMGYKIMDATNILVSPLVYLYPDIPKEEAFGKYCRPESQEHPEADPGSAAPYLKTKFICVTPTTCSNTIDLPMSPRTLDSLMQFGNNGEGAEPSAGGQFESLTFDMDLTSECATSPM
Experimental: as §1, §2

STAT1 = biological target: T2, STAT1 (Mus musculus, UniProt P42225); test: IFN-γ-induced STAT1 activation (Tyr701 phosphorylation) in CD4+ T cells, immunoblotting; type: cell-based; details: 50 or 100 μM; IFN-γ 30 min
T2 construct: endogenous in cells; host or cells: primary mouse CD4+ T cells (spleen and lymph nodes)
T2 sequence (P42225 1-749): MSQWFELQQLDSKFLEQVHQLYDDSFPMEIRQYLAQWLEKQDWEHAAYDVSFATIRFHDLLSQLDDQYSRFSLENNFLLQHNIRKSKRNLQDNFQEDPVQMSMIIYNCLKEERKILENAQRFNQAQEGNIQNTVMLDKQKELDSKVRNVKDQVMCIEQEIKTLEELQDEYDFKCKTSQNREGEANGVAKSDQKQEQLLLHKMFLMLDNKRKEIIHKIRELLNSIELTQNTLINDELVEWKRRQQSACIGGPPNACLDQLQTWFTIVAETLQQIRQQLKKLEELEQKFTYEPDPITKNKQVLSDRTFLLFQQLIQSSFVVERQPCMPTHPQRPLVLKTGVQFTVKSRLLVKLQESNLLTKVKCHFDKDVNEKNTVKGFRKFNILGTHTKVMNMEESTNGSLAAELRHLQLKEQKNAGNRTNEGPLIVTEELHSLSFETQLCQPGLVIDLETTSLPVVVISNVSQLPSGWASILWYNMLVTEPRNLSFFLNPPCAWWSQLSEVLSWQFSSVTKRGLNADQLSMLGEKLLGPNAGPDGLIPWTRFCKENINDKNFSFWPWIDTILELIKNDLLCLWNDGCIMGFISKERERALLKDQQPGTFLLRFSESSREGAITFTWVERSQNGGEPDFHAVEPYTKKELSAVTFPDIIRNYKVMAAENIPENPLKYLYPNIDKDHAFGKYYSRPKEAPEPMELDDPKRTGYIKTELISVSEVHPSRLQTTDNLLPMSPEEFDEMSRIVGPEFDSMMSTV
Experimental: as §1, §2

naïve CD4+ T cells [2] = test: In vitro TH-GM (GM-CSF-expressing TH) differentiation from naïve CD4+ T cells; type: cell-based, mouse; details: TH-GM cell-favoring condition, inhibitor 3 days
Experimental: Naïve CD4^+ T cells were primed with plate-bound anti-CD3 and soluble anti-CD28 in the presence of a combination of various cytokines and neutralizing antibodies as indicated. GM-CSF, IL-17 and IFN-γ expression was analyzed by intracellular staining (FIG. 13A) or RT-PCR (FIG. 13B)
GM-CSF and IFN-γ expression in naive CD4^+ T cells activated for 72 h with anti-CD3 alone or plus anti-CD28 (FIG. 14A). In FIG. 14B, sorted naïve CD4^+ T cells were stimulated with anti-CD3 and anti-CD28 in the presence of neutralizing antibodies against IL-12 and IFN-γ without or with the addition of IL-6. The frequencies of GM-CSF^+ and IL-17^+ cells were measured by intracellular staining (FIG. 14B). In FIG. 14C, naïve CD4^+ T cells from Stat3^+/+ and Stat3^−/− mice were polarized under conditions as indicated for 72 h. The frequencies of GM-CSF^+ and IL-17^+ cells were analyzed. In FIG. 14D, naïve CD4^+ T cells were activated with anti-CD3 and anti-CD28 in the presence of IL-2 or anti-IL-2. The frequencies of GM-CSF^+, IL-17^+ and IFN-γ^+ cells were analyzed.
Naïve CD4^+ T cells were primed with plate-bound anti-CD3 and soluble anti-CD28 in the presence of various concentration of IL-7 as indicated. GM-CSF and IFN-γ expression was analyzed by intracellular staining (FIG. 15A) or ELISA (FIG. 15B). In FIGS. 15C and 15D, Stat5^+/+ and Stat5^−/− naïve CD4^+ T cells were activated with anti-CD3 and anti-CD28 in the presence IL-7 for 3 days. GM-CSF, IL-17 and IFN-γ expression was analyzed by intracellular cytokine staining (FIG. 15C). GM-CSF secretion was measured by ELISA (FIG. 15D).

naïve CD4+ T cells [3] = test: In vitro TH1 differentiation; type: cell-based, mouse; details: data not shown
Experimental: CD4^+ T cells were obtained from spleens and lymph nodes by positive selection and magnetic separation (Miltenyi Biotech), followed by purification of naïve CD4^+ T cell population (CD4^+CD25^−CD62L^hiCD44^lo) sorted with FACS Aria. Naïve CD4^+ T cells were stimulated with plate-bound anti-CD3 (3 μg/ml; BD Pharmingen) and anti-CD28 (1 μg/ml; BD Pharmingen) in presence of different combinations of neutralizing antibodies and cytokines for 3˜4 days: for neutral conditions, no addition of any cytokine or neutralizing antibody; for TH1 conditions, IL-12 (10 ng/ml), and anti-IL-4 (10 μg/ml, BD Pharmingen); for TH17 conditions, hTGF-β (3 ng/ml), IL-6 (20 ng/ml), anti-IFN-γ (10 μg/ml, eBioscience), and anti-IL-4 (10 μg/ml); for an alternative TH17 conditions, IL-6 (20 ng/ml), IL-23 (10 ng/ml), IL-1β (10 ng/ml), anti-IFN-γ (10 μg/ml), and anti-IL-4 (10 μg/ml). For GM-CSF-expressing cell differentiation, naïve CD4^+ T cells were stimulated with plate-bound anti-CD3 (2 μg/ml) and soluble anti-D28 (1 μg/ml) with the addition of IL-7 and/or anti-IFN-γ (10 μg/ml) as indicated. All cytokines were obtained from R&D Systems. […] Cells were acquired on the LSR II (BD Biosciences) and analyzed with FlowJo software (Tree Star). […]

naïve CD4+ T cells [4] = test: In vitro TH17 differentiation; type: cell-based, mouse; details: data not shown
Experimental: CD4^+ T cells were obtained from spleens and lymph nodes by positive selection and magnetic separation (Miltenyi Biotech), followed by purification of naïve CD4^+ T cell population (CD4^+CD25^−CD62L^hiCD44^lo) sorted with FACS Aria. Naïve CD4^+ T cells were stimulated with plate-bound anti-CD3 (3 μg/ml; BD Pharmingen) and anti-CD28 (1 μg/ml; BD Pharmingen) in presence of different combinations of neutralizing antibodies and cytokines for 3˜4 days: for neutral conditions, no addition of any cytokine or neutralizing antibody; for TH1 conditions, IL-12 (10 ng/ml), and anti-IL-4 (10 μg/ml, BD Pharmingen); for TH17 conditions, hTGF-β (3 ng/ml), IL-6 (20 ng/ml), anti-IFN-γ (10 μg/ml, eBioscience), and anti-IL-4 (10 μg/ml); for an alternative TH17 conditions, IL-6 (20 ng/ml), IL-23 (10 ng/ml), IL-1β (10 ng/ml), anti-IFN-γ (10 μg/ml), and anti-IL-4 (10 μg/ml). […] Cells were acquired on the LSR II (BD Biosciences) and analyzed with FlowJo software (Tree Star).
Stat5 deletion (Cd4-cre; Stat5^f/−) mice was reported to develop peripheral lymphopenia, with a reduction of both CD4^+ and CD8^+ T cells (Yao et al., 2006). […] Furthermore, increased frequencies of IL-17^+ and IFN-γ^+ cells were detected among CD4^+ T cells in spleens of Stat5^−/− mice (FIG. 4C), which further support the idea that the resistance to EAE in Stat5^−/− mice is likely independent of TH1 and TH17 generation. […]

EAE mice = test: EAE (MOG35-55/CFA) model; type: in vivo
Experimental: (FIG. 23A) Clinical EAE scores of wild-type control mice (n=5) or administrated with STAT5 inhibitor (Calbiochem). Arrow indicates the treatment points. (FIG. 23B) Histology of spinal cords at day 18 of EAE mice receiving different treatments. (FIG. 23C) Intracellular staining and flow cytometry of CNS-infiltrating CD4^+ T cells at peak of disease. (FIG. 23D) Whole CNS was harvest for RNA extraction. GM-CSF mRNA expression was analyzed by RT-PCR. Data represent two independent experiments. *p<0.05.
EAE induction procedures were modified from previous report^3. For active EAE induction, mice were immunized in two sites on the hind flanks with 300 μg MOG35-55 in 100 μl CFA containing 5 mg/ml heat-killed M. tuberculosis strain H37Ra (Difco) at day 0 and day 7. Pertussis toxin (List Bio Lab) was administrated intraperitoneally at the dosage of 500 ng per mouse at day 1 and day 8. For single MOG35-55/CFA immunization, the similar procedure was performed at day 0 and day 1 only. In an alternative active EAE induction, LPS (600 μg/ml in IFA, O111:B4 from Sigma) was used as adjuvant. […] Clinical symptoms were scored as follows: 0, no clinical sign; 1, loss of tail tone; 2, wobbly gait; 3, hind limb paralysis; 4, hind and fore limb paralysis; 5, death. […] For analysis of CNS-infiltrating cells, both spinal cord and brain were collected and minced from perfused mice, and mononuclear cells were isolated by gradient centrifuge with Percoll (GE Healthcare).
To explore the therapeutic effect of targeting STAT5 activation in EAE disease, the commercial STAT5 inhibitor was administered to wild-type mice intraperitoneally every other day after disease onset. Development of paralysis was assessed by daily assignment of clinical scores.

STAT5 [5] = details: Muller et al., 2008; cited from earlier work

With `O=C(N/N=C/c1coc2ccccc2c1=O)c1cccnc1` [STAT5 inhibitor] the “inhibitory effect on STAT5 activation upon IL-7 stimulation” value (STAT5 [1]; 50 μM) was “about 50%”, the “inhibitory effect on STAT5 activation upon IL-7 stimulation” value (STAT5 [1]; FIG. 22A, 22B) was “low affinity and thus required a high concentration to fully block STAT5 activation” and the “inhibitory effect on STAT3 activation” value (STAT3) was “minimal inhibitory effect”. The “inhibitory effect on STAT1 activation” value (STAT1) was “minimal inhibitory effect”, the TH-GM differentiation (naïve CD4+ T cells [2]) was “suppressed TH-GM differentiation in a dosage-dependent manner” and the TH1 differentiation (naïve CD4+ T cells [3]) was “Reduced TH1 differentiation”. For the same compound, the TH17 differentiation (naïve CD4+ T cells [4]) was “not suppressed”, the “GM-CSF production in CNS-infiltrating CD4+ T cells” value (EAE mice; inhibitor-treated EAE mice, peak of disease) was “reduced GM-CSF production” and the “EAE severity (clinical scores)” value (EAE mice; wild-type mice, intraperitoneally every other day after disease onset) was “ameliorated EAE severity”. For the same compound, the “immune cell infiltration in the CNS” value (EAE mice; wild-type mice, intraperitoneally every other day after disease onset, day 18) was “reduced immune cell infiltration in the CNS” and the “disruption of tyrosine phosphorylation and DNA binding of STAT5” value (STAT5 [5]) was “selectively disrupt tyrosine phosphorylation and DNA binding of STAT5”.
